Our source for the IC50 and Ki values is ChEMBL document CHEMBL1156048, “Design and optimisation of selective serotonin re-uptake inhibitors with high synthetic accessibility: part 2” (Bioorg Med Chem Lett, 2009).

Type in all cases: cell-based
Test [1] deals with Sodium-dependent serotonin transporter (Homo sapiens, UniProt P31645). Briefly: Inhibition of serotonin reuptake at human serotonin transporter expressed in HEK293 cells after 5 mins by scintillation counting.
Test [2] deals with Sodium-dependent dopamine transporter (Homo sapiens, UniProt Q01959). Briefly: Inhibition of dopamine reuptake at human dopamine transporter expressed in HEK293 cells after 5 mins by scintillation counting.
Test [3] concerns the target Sodium-dependent noradrenaline transporter (Homo sapiens, UniProt P23975). Briefly: Inhibition of noradrenaline reuptake at human noradrenaline transporter expressed in HEK293 cells after 15 mins by scintillation counting.
Test [4] deals with Voltage-gated inwardly rectifying potassium channel KCNH2 (Homo sapiens, UniProt Q12809). Briefly: Displacement of [3H]dofetilide from human ERG expressed in HEK293 cells. On the technique in general: Displacement assays read how much labelled ligand stays bound in the presence of the test substance.

The structures appear in SMILES notation.

Chain of Sodium-dependent serotonin transporter (P31645 whole entry): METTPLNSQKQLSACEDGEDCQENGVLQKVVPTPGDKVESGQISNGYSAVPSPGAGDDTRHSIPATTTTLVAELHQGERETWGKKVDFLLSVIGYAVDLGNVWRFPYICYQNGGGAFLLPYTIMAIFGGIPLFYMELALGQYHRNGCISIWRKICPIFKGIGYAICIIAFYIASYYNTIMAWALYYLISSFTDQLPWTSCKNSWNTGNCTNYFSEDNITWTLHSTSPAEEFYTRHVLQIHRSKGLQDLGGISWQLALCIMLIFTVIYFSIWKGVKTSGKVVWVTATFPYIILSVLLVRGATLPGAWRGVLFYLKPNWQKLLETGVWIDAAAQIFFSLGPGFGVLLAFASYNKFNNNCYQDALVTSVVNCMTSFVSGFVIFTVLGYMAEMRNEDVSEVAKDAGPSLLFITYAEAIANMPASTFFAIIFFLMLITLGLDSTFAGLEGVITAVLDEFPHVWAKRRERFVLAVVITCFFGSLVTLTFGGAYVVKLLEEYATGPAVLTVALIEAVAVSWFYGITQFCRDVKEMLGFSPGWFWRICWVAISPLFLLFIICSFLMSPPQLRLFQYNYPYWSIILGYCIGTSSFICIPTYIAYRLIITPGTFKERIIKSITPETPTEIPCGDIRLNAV
Chain of Sodium-dependent noradrenaline transporter (P23975 whole entry): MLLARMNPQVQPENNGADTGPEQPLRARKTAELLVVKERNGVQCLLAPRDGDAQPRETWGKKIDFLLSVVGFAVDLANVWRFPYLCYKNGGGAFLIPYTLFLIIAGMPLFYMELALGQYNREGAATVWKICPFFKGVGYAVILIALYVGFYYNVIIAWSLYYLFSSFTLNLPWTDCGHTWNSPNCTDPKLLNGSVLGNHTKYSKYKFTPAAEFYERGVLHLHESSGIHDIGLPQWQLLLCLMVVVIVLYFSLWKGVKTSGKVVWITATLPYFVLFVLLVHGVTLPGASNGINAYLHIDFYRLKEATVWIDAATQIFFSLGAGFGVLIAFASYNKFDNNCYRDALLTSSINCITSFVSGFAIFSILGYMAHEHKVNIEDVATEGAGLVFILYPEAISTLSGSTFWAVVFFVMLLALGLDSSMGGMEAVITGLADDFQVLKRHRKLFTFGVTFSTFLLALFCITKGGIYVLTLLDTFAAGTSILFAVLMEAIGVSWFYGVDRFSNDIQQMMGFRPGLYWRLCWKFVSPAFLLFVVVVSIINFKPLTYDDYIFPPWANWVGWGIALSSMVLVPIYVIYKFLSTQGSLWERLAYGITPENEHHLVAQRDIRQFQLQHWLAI
Chain of Voltage-gated inwardly rectifying potassium channel KCNH2 (Q12809 whole entry): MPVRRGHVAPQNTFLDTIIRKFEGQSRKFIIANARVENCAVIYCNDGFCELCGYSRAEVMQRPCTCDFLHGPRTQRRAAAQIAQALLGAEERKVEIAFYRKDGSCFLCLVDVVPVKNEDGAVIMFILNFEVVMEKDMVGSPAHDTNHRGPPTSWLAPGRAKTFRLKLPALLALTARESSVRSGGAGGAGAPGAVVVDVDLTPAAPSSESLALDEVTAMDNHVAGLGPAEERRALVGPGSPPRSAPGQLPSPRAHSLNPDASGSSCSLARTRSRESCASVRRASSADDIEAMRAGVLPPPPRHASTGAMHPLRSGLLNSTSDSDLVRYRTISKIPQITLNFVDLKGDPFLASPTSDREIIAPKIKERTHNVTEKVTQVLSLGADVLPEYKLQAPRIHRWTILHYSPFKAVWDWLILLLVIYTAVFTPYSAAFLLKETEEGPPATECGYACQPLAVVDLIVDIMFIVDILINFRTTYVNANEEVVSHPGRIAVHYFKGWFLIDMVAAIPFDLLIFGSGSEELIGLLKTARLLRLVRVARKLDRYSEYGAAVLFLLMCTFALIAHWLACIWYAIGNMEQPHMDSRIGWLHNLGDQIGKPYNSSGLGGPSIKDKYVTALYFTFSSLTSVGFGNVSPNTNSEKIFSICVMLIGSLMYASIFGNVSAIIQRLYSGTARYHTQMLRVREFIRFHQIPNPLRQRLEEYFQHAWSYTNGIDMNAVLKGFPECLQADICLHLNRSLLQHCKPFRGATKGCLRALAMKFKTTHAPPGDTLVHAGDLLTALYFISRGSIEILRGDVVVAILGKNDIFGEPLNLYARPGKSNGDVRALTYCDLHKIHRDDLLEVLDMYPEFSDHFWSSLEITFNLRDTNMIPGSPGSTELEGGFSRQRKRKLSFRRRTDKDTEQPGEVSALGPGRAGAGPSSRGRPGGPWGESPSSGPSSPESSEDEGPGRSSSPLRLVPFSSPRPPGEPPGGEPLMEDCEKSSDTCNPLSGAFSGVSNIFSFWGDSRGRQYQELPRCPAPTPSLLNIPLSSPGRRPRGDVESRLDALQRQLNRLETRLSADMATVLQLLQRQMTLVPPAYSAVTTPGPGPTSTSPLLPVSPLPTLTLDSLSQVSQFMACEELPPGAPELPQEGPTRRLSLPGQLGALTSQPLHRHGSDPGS
Chain of Sodium-dependent dopamine transporter (Q01959 whole entry): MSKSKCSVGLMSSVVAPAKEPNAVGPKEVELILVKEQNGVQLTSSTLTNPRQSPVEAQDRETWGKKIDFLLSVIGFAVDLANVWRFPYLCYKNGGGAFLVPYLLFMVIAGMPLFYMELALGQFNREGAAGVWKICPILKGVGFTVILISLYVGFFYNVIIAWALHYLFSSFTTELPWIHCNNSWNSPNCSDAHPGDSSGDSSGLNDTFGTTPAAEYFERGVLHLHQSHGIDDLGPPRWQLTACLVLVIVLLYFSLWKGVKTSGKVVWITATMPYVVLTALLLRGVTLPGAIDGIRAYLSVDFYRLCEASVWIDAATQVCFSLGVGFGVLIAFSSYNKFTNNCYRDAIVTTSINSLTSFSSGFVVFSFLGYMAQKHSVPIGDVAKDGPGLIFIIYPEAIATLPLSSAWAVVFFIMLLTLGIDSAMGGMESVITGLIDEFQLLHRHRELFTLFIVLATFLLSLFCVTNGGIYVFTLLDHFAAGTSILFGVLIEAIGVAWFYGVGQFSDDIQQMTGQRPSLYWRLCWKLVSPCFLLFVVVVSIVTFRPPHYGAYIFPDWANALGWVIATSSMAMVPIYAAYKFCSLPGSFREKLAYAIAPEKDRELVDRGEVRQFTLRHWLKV

For orientation: IC50 means the point on the concentration scale where inhibition reaches its midpoint. A high value points to weaker potency. Consider `CCCN(C(=O)c1ccc2ccccc2c1)C1CCNCC1`, for which the IC50 in test [1] is 28.3 nM; in test [2], above 40000 nM; in test [3], above 40000 nM.
Take `CC(C)N(C(=O)c1ccc2ccccc2c1)[C@@H]1CCNC1`: the results for the IC50 in test [1], in test [2] and in test [3] were 15 nM, above 14000 nM and 7500 nM, respectively.
In the same order, the values of `Cc1c(C(=O)N(CC(C)(C)C)[C@H]2CCNC2)ccc(Cl)c1Cl` are 15 nM, above 28000 nM and 357 nM.
The Ki is the equilibrium dissociation constant of an inhibitor or competing ligand from its target. Low values mean higher affinity, high ones lower affinity. Turning to `CS(=O)(=O)N(Cc1ccc2ccccc2c1)[C@@H]1CCNC1`, the half-maximal inhibitory concentration (IC50) in test [1] was 17 nM; in test [2], above 68000 nM; in test [3] it was 7000 nM. The Ki in test [4] came out at 4200 nM.
`CCC(=O)N(Cc1ccc2ccccc2c1)C1CCNCC1`: the IC50 in test [1] is 1 nM; in test [2], 339 nM; in test [3] it was 1300 nM. Further, the affinity in test [4] corresponds to a Ki of 12000 nM.
`c1cnc(N(Cc2ccc3ccccc3c2)C2CCNCC2)nc1`: the results for the half-maximal inhibitory concentration (IC50) in test [1], in test [2] and in test [3] were 10 nM, 1300 nM and 1200 nM, respectively.
On to `O=C(c1ccc2ccccc2c1)N(C1CCCC1)[C@@H]1CCNC1`, for which the values for the concentration for half-maximal inhibition (IC50) in test [1], in test [2] and in test [3] were 12 nM, 7400 nM and 677 nM, respectively.
`Cc1c(C(=O)N(C(C)C)[C@@H]2CCNC2)ccc(Cl)c1Cl`: the results for the IC50 in test [1], in test [2] and in test [3] were 7 nM, above 40000 nM and 5700 nM, respectively.
For `CC(C)CN(C(=O)c1ccc2ccccc2c1)[C@H]1CCNC1`, the IC50 turned out to be 3 nM in test [1], 744 nM in test [2] and 24 nM in test [3].
In the case of `CN(C(=O)c1ccc(Cl)c(Cl)c1)[C@@H]1CCNC1`, the 50% inhibitory concentration (IC50) in test [1] is above 400 nM.
`CS(=O)(=O)N(Cc1ccc2ccccc2c1)[C@H]1CCNC1`: the results for the IC50 in test [1], in test [2] and in test [3] were 3.5 nM, 2800 nM and 370 nM, respectively. In addition, the affinity in test [4], expressed as Ki, was 11000 nM.
In the same order, the values of `CC(=O)N(Cc1ccc2ccccc2c1)C1CCNCC1` are 4.5 nM, 1500 nM, 8900 nM and above 20000 nM.
`Cc1c(C(=O)N(C)[C@@H]2CCNC2)ccc(Cl)c1Cl`: the IC50 in test [1] turned out to be 58 nM.
Consider `CS(=O)(=O)N(Cc1ccc2ccccc2c1)C1CCNCC1`, for which the values for the IC50 in test [1], in test [2] and in test [3] were 3.5 nM, 4900 nM and 2500 nM, respectively. The inhibition constant Ki in test [4] amounted to 3200 nM.
For `O=C(c1ccc2ccccc2c1)N(C1CCC1)[C@@H]1CCNC1`, the values for the half-inhibitory concentration (IC50) in test [1], in test [2] and in test [3] were 9 nM, 5800 nM and 6000 nM, respectively.
In the same order, the values of `CCN(C(=O)c1ccc(Cl)c(Cl)c1C)[C@@H]1CCNC1` are 10 nM, above 40000 nM and 17400 nM.
With `CCC(=O)N(Cc1ccc2ccccc2c1)[C@@H]1CCNC1`, the half-inhibitory concentration (IC50) was determined as 2.4 nM in test [1], 266 nM in test [2] and 224 nM in test [3].
Take `Cc1c(CN([C@@H]2CCNC2)S(C)(=O)=O)ccc2cc(F)ccc12`: the IC50 in test [1] was 4.6 nM; in test [2], above 28000 nM; in test [3], 735 nM. Also, in test [4], the Ki came to 1600 nM.
As to `O=C(NC1CCNCC1)c1ccc2ccccc2c1`, in test [1], the half-maximal inhibitory concentration (IC50) was above 400 nM.
Regarding `CC(C)CN(C(=O)c1ccc2ccccc2c1)[C@@H]1CCNC1`, the half-inhibitory concentration (IC50) in test [1] worked out at 5 nM; in test [3], 1200 nM. In test [4], this compound gave an inhibition constant (Ki) of 7000 nM.
As for `CC(=O)N(Cc1ccc2ccccc2c1)[C@@H]1CCNC1`, the IC50 in test [1] is 5.2 nM; in test [2], above 12000 nM; in test [3], 726 nM.
In the case of `O=C(c1ccc2ccccc2c1)N(C1CCC1)C1CCNCC1`, the IC50 in test [1] was 10 nM; in test [2], above 40000 nM; in test [3], above 40000 nM. In test [4], this compound registered a Ki above 10000 nM.
Regarding `c1ccc2cc(COC3CCNCC3)ccc2c1` [LITOXETINE], the figures for the IC50 in test [1], in test [2] and in test [3] were 5.9 nM, 6700 nM and 1400 nM, respectively.
